Tested on: rat brain tissue
Experiment: Real-time fluorescence detection of Ca^2+-dependent GABA release from rat neural tissue on GABA-T/SSADH sensor
Format: cell-based
Method: Adult Sprague-Dawley rats about 160 grams each were injected with an overdose of Nembutal. The brains or spinal cords were removed and washed several times with PBS and then embedded with 5% low melting temperature agarose (NuSieve® GAG® agarose, FMC BioProducts, Me.). The embedded brains or spinal cords were cut with a Vibratome (VT10003, LEICA Microsystems, Germany) in 300 μm tissue sections. Each tissue section was placed on a GABA-T/SSADH fluorometric silica glass sensor and then GABA released from the tissue sections were measured with Fluoroskan Ascent (Labsystems, Finland).
The silica glass sensors of the present invention may be used to assay neural tissue and agents which affect neural tissue. […] Neural tissue, […], was cultured on GABA-T/SSADH sensors prepared inside tissue culture vessels. […] Therefore, GABA release is stimulated by Ca^2+.
The effect of various agents on GABA release in rat neural tissue were assayed in real-time with a GABA-T/SSADH sensor. The agents tested were 2-APB (a cell-permeable IP3 receptor antagonist), Thapsigargin (a blocker of store-specific Ca^2+-ATPase), Ryanodine and caffeine (increase internal Ca^2+ level), and KN-93 (CAM kinase II inhibitor).
FIGS. 10 and 11 show the effect of Thapsigargin and Ryanodine on Ca^2+-dependent GABA release, respectively. Therefore, the silica glass sensors of the present invention may be used for assaying the effect of various agents on cells and tissues cultured thereon.

In the case of [Ca+2].[Cl-].[Cl-] [Ca^2+], the “GABA release versus controls” value (100 mM Ca^2+, rat brain tissue, FIG. 8) is reported as “released more GABA than controls”.
With NCCOB(c1ccccc1)c1ccccc1 [2-APB] the “less GABA release” value (75 μM 2-APB without 10 mM CaCl2 compared with 75 μM 2-APB with 10 mM CaCl2, FIG. 9) was “about 41.9%” and the “effect on Ca^2+-dependent GABA release” value (75 μM 2-APB, rat neural tissue, FIG. 9) was “inhibits Ca^2+-dependent GABA release”.
